# Assay results: patent publication US20110082133A1, “PYRIDONE COMPOUNDS” (priority 2008, published 2011)
# Structures can show the parent of a compound that is named as a salt.
# Legend:
# rat EP2 receptor = target: T1, rat EP2 receptor (Rattus norvegicus, UniProt Q62928); assay: Rat EP2 receptor agonistic/antagonistic action (cAMP assay, CHO-K1 stable expression cells); format: cell-based; conditions: cAMP increasing action, 1 μM PGE2 taken as 100%, NE means that the action has no significance
# T1 construct: expressed in transfected cells
# T1 sequence (Q62928 whole entry): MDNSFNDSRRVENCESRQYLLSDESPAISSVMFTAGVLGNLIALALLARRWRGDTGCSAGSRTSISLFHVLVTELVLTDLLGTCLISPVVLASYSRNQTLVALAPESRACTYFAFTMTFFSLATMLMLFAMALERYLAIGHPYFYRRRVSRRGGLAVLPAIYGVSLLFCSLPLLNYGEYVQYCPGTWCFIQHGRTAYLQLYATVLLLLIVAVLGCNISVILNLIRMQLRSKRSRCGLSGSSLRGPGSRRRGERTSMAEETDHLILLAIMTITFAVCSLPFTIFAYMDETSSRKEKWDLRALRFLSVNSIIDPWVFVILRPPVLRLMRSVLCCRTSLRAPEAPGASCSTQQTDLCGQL
# Experimental: For a rat EP2 receptor, stable expression cells were used to carry out a cAMP assay. The agonistic activity was evaluated by the cAMP increasing action by the test compound, and the antagonistic activity was evaluated by the inhibiting action of the test compound on the cAMP increasing action by PGE2.
# The rat EP2 receptor cDNA was subcloned into an expression vector (pcDNA3.1-V5-His-topo, manufactured by Invitrogen Corporation). This expression vector was introduced into CHO-K1 cells (American Type Culture Collection) to prepare a rat EP2 receptor stable expression cell line. These cells were seeded onto a 96-well microplate at 0.5×10^4 cell/well, and used for the experiment the next day. The culture medium of each well was removed by suction, 100 μL/well of an assay culture medium (α-MEM containing 2 μM indomethacin and 0.1% bovine serum albumin) was added thereto, and incubated at 37° C. for 1 hour. The culture medium was removed again by suction, and replaced with 100 μL/well of an assay culture medium containing a test compound and 1 mM IBMX. […] Using a cAMP femto 2 kit (manufactured by Cis Bio International), the cAMP concentration in the cell lysate was measured. In this connection, the cAMP increasing action (%) was calculated with the cAMP increasing action by 1 μM PGE2 was taken as 100%.
# rat EP4 receptor = rat EP4 receptor (Rattus norvegicus, UniProt P43114); assay: EP4 receptor agonistic action in rat (cAMP increasing action in rat EP4 receptor expression CHO-K1 cells); format: cell-based; set-up: expressed in transfected cells; conditions: cAMP increasing action by 1 μM PGE2 taken as 100%
# Chain of rat EP4 receptor (P43114 whole entry): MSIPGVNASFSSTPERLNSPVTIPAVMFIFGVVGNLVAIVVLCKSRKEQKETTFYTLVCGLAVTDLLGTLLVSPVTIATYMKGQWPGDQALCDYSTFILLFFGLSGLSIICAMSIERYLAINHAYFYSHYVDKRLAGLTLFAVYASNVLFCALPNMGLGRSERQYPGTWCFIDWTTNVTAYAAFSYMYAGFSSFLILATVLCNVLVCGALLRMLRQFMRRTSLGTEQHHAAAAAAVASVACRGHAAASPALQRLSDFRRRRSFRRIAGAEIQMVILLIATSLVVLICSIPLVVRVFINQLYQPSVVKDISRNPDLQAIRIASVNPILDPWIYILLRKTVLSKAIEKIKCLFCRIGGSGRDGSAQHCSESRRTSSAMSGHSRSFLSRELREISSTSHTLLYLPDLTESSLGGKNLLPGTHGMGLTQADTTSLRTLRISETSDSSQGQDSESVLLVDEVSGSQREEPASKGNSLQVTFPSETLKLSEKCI
# Experimental: The agonistic activity was evaluated by the cAMP increasing action in the rat EP4 receptor expression cells. The rat EP4 receptor expression vector was introduced into CHO-K1 cells (American Type Culture Collection) to prepare a rat EP4 receptor stable expression cell line. These cells were seeded onto a 96-well microplate at 2×10^4 cell/well, and used for the experiment the next day. The culture medium of each well was removed by suction, 100 μL/well of an assay culture medium (2 μM indomethacin, 0.1% bovine serum albumin-containing α-MEM) was added thereto, and incubated at 37° C. for 1 hour. The culture medium was removed again by suction, and replaced with 100 μL/well of an assay culture medium comprising a test compound and 1 mM IBMX (3-isobutyl-1-methylxanthine). After incubating at 37° C. for 30 minutes, the culture medium was removed by suction, 100 μL/well of a cell lysate (0.2% Triton-X100-containing phosphate buffer physiological saline) was put thereinto, and the plate was shaken for 10 minutes. Using a cAMP femto 2 kit (manufactured by Cis Bio International), the cAMP concentration in the cell lysate was measured. Further, the cAMP increasing action (%) was calculated with the cAMP increasing action by 1 μM PGE2 was taken as 100%.
Rat EP2 Agonistic Action 10 μM (rat EP2 receptor) [%],cAMP increasing action (%) at 10 μM (rat EP4 receptor) [%],Compound
14,58,"CCC[C@H]1CCCN1Cc1c(Cl)cc(Cl)c(=O)n1CCc1ccc(C(=O)O)cc1 [Example 17, 4-{2-[3,5-dichloro-2-oxo-6-{[(2S)-2-propylpyrrolidin-1-yl]methyl}pyridin-1(2H)-yl]ethyl}benzoic acid trifluoroacetate]"
–,76,O=C(O)c1ccc(CCn2c(CNc3cccc(OC(F)(F)F)c3)c(Cl)cc(Cl)c2=O)cc1 [Example 107]
19,79,CN(Cc1c(Cl)cc(Cl)c(=O)n1CCc1ccc(C(=O)O)cc1)c1cccc(Cl)c1 [Example 160]
–,65,"O=C(O)c1ccc(CCn2c(CN3CCc4ccc(F)cc43)c(Cl)cc(Cl)c2=O)cc1 [Example 9, 4-(2-{3,5-dichloro-6-[(6-fluoro-2,3-dihydro-1H-indol-1-yl)methyl]-2-oxopyridin-1(21-1)-yl}ethyl)benzoic acid]"
